Activity calls are given as the source filed them. The calls are words filed in the database; no cut-off is given here.

In assay [1] the test system is Leishmania amazonensis. The assay is described as follows: Antileishmanial activity against Leishmania amazonensis MHOM/BR/76/LTB-012 promastigotes at 100 uM after 72 hrs by alamar blue assay. The class given is functional. Particulars: MHOM/BR/76/LTB-012, 72 h, read-out: GI. On the technique in general: Resazurin is reduced to fluorescent resorufin, in cell work by metabolically active cells.

The target in assay [2] is T1, Trypanothione reductase (Trypanosoma cruzi, UniProt P28593). As to the kind of experiment: (§1) Inhibition of Trypanosoma cruzi recombinant trypanothione reductase.
T1 sequence (P28593 whole entry): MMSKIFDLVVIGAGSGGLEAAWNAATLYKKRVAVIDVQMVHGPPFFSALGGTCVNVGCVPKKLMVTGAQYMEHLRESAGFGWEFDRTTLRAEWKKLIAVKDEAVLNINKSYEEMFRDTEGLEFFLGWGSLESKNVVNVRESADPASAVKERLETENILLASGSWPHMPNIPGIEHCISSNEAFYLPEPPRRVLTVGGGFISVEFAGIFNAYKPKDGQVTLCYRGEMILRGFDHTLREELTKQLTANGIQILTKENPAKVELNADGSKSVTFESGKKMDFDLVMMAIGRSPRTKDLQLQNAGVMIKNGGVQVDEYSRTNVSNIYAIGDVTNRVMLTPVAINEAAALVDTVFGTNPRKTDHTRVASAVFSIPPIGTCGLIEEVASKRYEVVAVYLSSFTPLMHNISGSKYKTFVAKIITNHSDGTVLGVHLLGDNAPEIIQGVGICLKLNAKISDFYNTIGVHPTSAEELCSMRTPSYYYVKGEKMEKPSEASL
Assay [3] addresses T2, Glutathione reductase (Saccharomyces cerevisiae S288c) (UniProt P41921).
T2 sequence (whole entry): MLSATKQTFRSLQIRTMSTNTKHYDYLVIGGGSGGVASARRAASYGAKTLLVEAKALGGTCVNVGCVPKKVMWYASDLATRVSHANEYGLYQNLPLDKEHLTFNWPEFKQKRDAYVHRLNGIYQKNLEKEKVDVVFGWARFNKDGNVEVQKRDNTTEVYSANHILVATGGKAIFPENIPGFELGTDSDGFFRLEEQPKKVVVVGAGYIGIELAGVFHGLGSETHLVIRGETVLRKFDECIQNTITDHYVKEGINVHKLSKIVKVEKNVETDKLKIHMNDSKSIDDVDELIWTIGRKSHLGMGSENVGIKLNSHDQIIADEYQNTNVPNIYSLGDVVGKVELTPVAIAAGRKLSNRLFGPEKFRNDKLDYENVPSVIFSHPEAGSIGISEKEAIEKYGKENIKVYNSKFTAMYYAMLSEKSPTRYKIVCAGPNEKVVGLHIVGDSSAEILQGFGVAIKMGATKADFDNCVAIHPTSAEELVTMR
As to the kind of experiment: Inhibition of yeast glutathione reductase at 100 uM.

Assay [4] concerns the target Trypanothione reductase (Trypanosoma cruzi) (UniProt P28593). The assay is described as follows: Inhibition of Trypanosoma cruzi recombinant trypanothione reductase at 85 uM.
The subject of assay [5] is Leishmania amazonensis. As to the kind of experiment: Antileishmanial activity against Leishmania amazonensis MHOM/BR/76/LTB-012 promastigotes after 72 hrs by alamar blue assay. It is filed as functional, organism-based. Particulars: MHOM/BR/76/LTB-012, 72 h.
The target in assay [6] is T3, Trypanothione reductase (Crithidia fasciculata, UniProt P39040). As to the kind of experiment: Inhibition of Crithidia fasciculata trypanothione reductase-substrate complex.
T3 sequence (P39040 whole entry): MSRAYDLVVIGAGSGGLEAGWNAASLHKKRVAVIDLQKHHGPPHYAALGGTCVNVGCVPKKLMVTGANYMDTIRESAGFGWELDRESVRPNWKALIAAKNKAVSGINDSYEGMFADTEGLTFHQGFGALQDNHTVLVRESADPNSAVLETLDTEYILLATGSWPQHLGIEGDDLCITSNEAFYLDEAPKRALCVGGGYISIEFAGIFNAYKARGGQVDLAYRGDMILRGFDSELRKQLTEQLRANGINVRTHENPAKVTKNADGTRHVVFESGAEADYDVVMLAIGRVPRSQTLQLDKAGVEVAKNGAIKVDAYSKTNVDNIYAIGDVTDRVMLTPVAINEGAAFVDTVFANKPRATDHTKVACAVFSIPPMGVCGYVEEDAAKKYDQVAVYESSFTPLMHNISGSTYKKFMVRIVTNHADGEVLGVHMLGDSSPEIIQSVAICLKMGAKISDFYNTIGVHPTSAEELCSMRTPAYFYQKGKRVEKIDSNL
In assay [7] the target is T3, Trypanothione reductase. The assay is described as follows: Inhibition of Crithidia fasciculata free trypanothione reductase.
In assay [8] the target is T2, Glutathione reductase (Saccharomyces cerevisiae S288c). The assay is described as follows: Inhibition of yeast glutathione reductase at 10 uM.
In assay [9] the target is Trypanothione reductase (Trypanosoma cruzi) (UniProt P28593). The assay is described as follows: Inhibition of Trypanosoma cruzi recombinant trypanothione reductase at 12.2 uM.
Chain of Trypanothione reductase (Trypanosoma cruzi) (P28593 whole entry, looked up): as the sequence (P28593 whole entry) above
The test system of a further assay is Leishmania infantum. As to the kind of experiment: Antileishmanial activity against Leishmania infantum promastigotes. It is filed as functional, organism-based.
The test system of another assay is NIH3T3. As to the kind of experiment: Cytotoxicity against mouse NIH3T3 cells. It is filed as cell-based.
The target in assay [10] is T1, Trypanothione reductase. The assay is described as follows: Inhibition of Trypanosoma cruzi recombinant trypanothione reductase-substrate complex.
Assay [11] concerns the target Trypanothione reductase (Trypanosoma cruzi) (UniProt P28593). The assay is described as §1.
Assay [12] has the same target. As to the kind of experiment: Inhibition of Trypanosoma cruzi recombinant trypanothione reductase at 800 uM.
The target is the same in assay [13]. As to the kind of experiment: Inhibition of Trypanosoma cruzi recombinant trypanothione reductase at 200 uM.
The target is the same in assay [14]. The assay is described as follows: Inhibition of Trypanosoma cruzi recombinant trypanothione reductase at 400 uM.

For `COc1ccc2c3c(n(CCCN(C)C)c2c1)C(C)=NCC3`, in the assay with Leishmania amazonensis [1], the inhibition of growth at 100 µM is 57%. Besides, the inhibitory constant (Ki) (as a rule, a measure of affinity in units of concentration, obtained from inhibition or displacement) at Trypanothione reductase [2] was 35.1 µM. Further, the inhibition (usually the drop in the measured response relative to a control, in per cent) in [3] was 6%; in assay [4] it was 50%.

Turning to `CN(C)CCCn1c2c(c(=O)n(CCCN(C)C)c1=O)Nc1ccccc1S2`, the inhibition of growth at 100 µM with Leishmania amazonensis [1] came out at 11%. Moreover, the Ki at Trypanothione reductase [2] is 26.9 µM. In assay [3], the result was inactive. Besides, the inhibition in [4] worked out at 62%. Take `CC[C@H]1[C@@H]2C[C@H]3[C@@H]4N(C)c5ccccc5[C@]45C[C@@H]([C@@H]2[C@H]5O)N3[C@@H]1O` [AJMALINE]: in the assay on Leishmania amazonensis [1], the inhibition of growth at 100 µM came out at 5%. Further, the inhibition in assay [4] was found to be 12%.

`COc1cc(CC2NCCc3c2[nH]c2ccccc32)ccc1O` (centres undefined): at Trypanothione reductase [2], the Ki was determined as 7 µM.

Turning to `N=C(N)c1ccc(OCCCCCOc2ccc(C(=N)N)cc2)cc1` [PENTAMIDINE], in the assay on Leishmania amazonensis [1], the inhibition of growth at 100 µM turned out to be 86%. In addition, the half-inhibitory concentration (IC50) (usually the midpoint of a concentration-inhibition curve) in the assay with Leishmania amazonensis [5] came out at 0.29 µM.

Consider `O=C(CCc1ccc(O)c(O)c1)NCCCNCCCCNCCCNC(=O)CCc1ccc(O)c(O)c1` [KUKOAMINE A], for which the values for the inhibition constant Ki on Trypanothione reductase [6] and on Trypanothione reductase [7] were 13 µM and 1.8 µM, respectively.

With `CN(C)c1ccc2nc3ccc(=[N+](C)C)cc-3sc2c1`, the inhibition in assay [8] was 30%. For the compound `O=c1[nH]c2c(c(=O)[nH]1)CNc1ccccc1S2` [PYRIMIDOBENZOTHIAZEPINE], the inhibition of growth at 100 µM in the assay on Leishmania amazonensis [1] is 14%. Further, the inhibition in assay [4] was 10%.

In the case of `CN(C)CCc1cn(C)c2ccc(O)cc12`, the inhibition in [4] was determined as 9%. As to `C[C@@H]1CN(CCCn2c3ccccc3c3ccccc32)C[C@H](C)N1`, the inhibition in [4] came to 4%. For the compound `N#Cc1ccc(C2NCCc3c2[nH]c2ccccc32)cc1` (centres undefined), on Trypanothione reductase [2], the inhibition constant Ki came out at 2 µM. Regarding `Cc1nccc2c1[nH]c1ccccc12`, the inhibition in assay [4] is 10%. Take `O=c1[nH]c2c(c(=O)[nH]1)Nc1ccccc1S2` [PYRIMIDOBENZOTHIAZINE]: the inhibition of growth at 100 µM in the assay on Leishmania amazonensis [1] was 15%. For the same compound, the inhibition in assay [4] was 36%. As to `CC1=CC2c3cccc4[nH]cc(c34)C[C@H]2N(C)C1` (some centres undefined), in the assay with Leishmania amazonensis [1], the inhibition of growth at 100 µM is 70%. Moreover, in assay [4], the inhibition is 28%. For `COC(=O)NC1CCc2cc(OC)c(OC)c(OC)c2-c2ccc(OC)c(=O)cc21` (centres undefined) [COLCHININE] the same measures were 6% and 8%. As to `COc1ccc(-c2cc(=O)c3c(O)cc(OC)cc3o2)cc1`, the inhibition in assay [4] was determined as 12%. With `CN(C)CCCN1c2ccccc2Sc2ccc(Cl)cc21` [CHLORPROMAZINE], on Trypanothione reductase [2], the IC50 stood at 5.8 µM and the Ki was found to be 3.2 µM. The inhibition in assay [9] worked out at 70%.

Compound `COc1ccc2c3c([nH]c2c1)C(C)=NCC3` [HARMALINE] returned an IC50 with Leishmania infantum of 119 µM. For the same compound, in assay [4], the inhibition amounted to 19%. Regarding `COc1ccc2c3ccnc(C)c3n(CCCN(C)C)c2c1`, the inhibition in [4] stood at 13%. As to `c1ccc2c(c1)[nH]c1cnccc12`, the inhibition in assay [4] stood at 10%. Take `CC[C@@]12CCCN3CC[C@]4(c5cccc(OC)c5N(C(C)=O)[C@@H]4CC1)[C@H]32` [ASPIDOSPERMINE]: the inhibition of growth at 100 µM with Leishmania amazonensis [1] came to 89%. Further, on Trypanothione reductase [2], the IC50 was 90.4 µM and the inhibitory constant (Ki) turned out to be 64.6 µM. In addition, the IC50 in the assay on NIH3T3 worked out at 46.2 µM. Besides, the result in assay [3] was inactive. In addition, the inhibition in [4] came out at 43%. With `CN(C)Cc1cn(C)c2ccccc12`, the inhibition in [4] was 8%. Regarding `CN(C)CCCn1c2ccccc2c2ccncc21`, in [4], the inhibition worked out at 20%.

On to `C=CC1CN2CCC1CC2C(O)c1ccnc2ccccc12` (centres undefined), for which the inhibition of growth at 100 µM in the assay with Leishmania amazonensis [1] amounted to 51%. Also, the inhibition in assay [4] came to 18%.

`COc1ccc2c(c1)[nH]c1c(C)nccc12`: the inhibition in assay [4] is 11%.

With `COc1ccc2cc1Oc1ccc(cc1)C[C@H]1c3c(cc4c(c3Oc3cc5c(cc3OC)CCN(C)[C@@H]5C2)OCO4)CCN1C` [CEPHARANTHINE], the inhibition constant Ki at Trypanothione reductase [2] was found to be 7.6 µM; at Trypanothione reductase [10], 51.6 µM. For the compound `O=C1CC[C@]23/C=C/C(=O)NCCCCNCCCNC(=O)/C=C\c4ccc(c2c4)O[C@@H]3C1`, the Kinact in assay [11] was 0.116 min⁻¹. Also, the Ki on Trypanothione reductase [2] stood at 144 µM.

Consider `O=C(/C=C/C=C/c1ccc2c(c1)OCO2)N1CCCCC1`, for which the inhibition in assay [4] turned out to be 11%. Regarding `Cc1nccc2c3ccccc3n(CCCN(C)C)c12`, in [4], the inhibition was 22%. Take `C[C@H]1[C@H]2CC[C@H]3[C@@H]4CC=C5C[C@@H](N(C)C)CC[C@]5(C)[C@H]4CC[C@]23CN1C` [CONESSINE]: the inhibition of growth at 100 µM in the assay with Leishmania amazonensis [1] stood at 97%. Besides, the inhibition in assay [12] was 91%; in assay [13], 45%; in [4] it was 25%; in assay [14], 73%. Consider `O=c1cc(-c2ccc(O)cc2)oc2cc(O)cc(O)c12`, for which the inhibition in assay [4] worked out at 13%.

The record behind these values is ChEMBL document CHEMBL1155017, “The use of natural product scaffolds as leads in the search for trypanothione reductase inhibitors” (Bioorg Med Chem, 2008).
